In patent publication US12162893B2 (Erasca, Inc., priority 2020, dated 2024):

Biological target: T1, mutant G12C K-RAS (Homo sapiens, UniProt P01116, G12C)
T1 construct: made in house; host or cells: E. coli BL21
Assay: covalent adduct formation (CAF) with mutant G12C K-RAS
Assay type: binding
Design: CAF: unit not given here
Conditions: Table 2, Pyrimidone Core-Morpholine Substituted; after 60 minutes at 10 micromolar
Method: Embodiments disclosed herein are further illustrated by the following examples in Tables 1-4 and the Examples hereinbelow. The Tables indicate the compound number, structure, the observed mass spectral molecular weight peak, and covalent adduct formation (CAF) with a mutant G12C K-RAS after 60 minutes at a concentration of 10 micromolar.

% CAF (60 min)	SMILES
84.6%	C=CC(=O)N1C[C@H](C)N(c2nc(=O)n3c4c(c(-c5ccc(F)cc5F)c(Cl)cc24)OCC3CN(C)C)C[C@H]1C (stereo partly drawn) [Example 35, 7-((2S,5R)-4-acryloyl-2,5-dimethylpiperazin-1-yl)-9-chloro-10-(2,4-difluorophenyl)-3-((dimethylamino)methyl)-2H-[1,4]oxazino[2,3,4-ij]quinazolin-5(3H)-one]

Same assay, conditions: Table 3, Pyridone Core-Morpholine Unsubstituted; after 60 minutes at 10 micromolar

SMILES	CAF
C=CC(=O)N1CCN(c2cc(=O)n3c4c(c(-c5c(O)cccc5F)ccc24)CCC3)CC1 [Example 45, 1-(4-acryloylpiperazin-1-yl)-8-(2-fluoro-6-hydroxyphenyl)-6,7-dihydropyrido[3,2,1-ij]quinolin-3(5H)-one]	1
C=CC(=O)N1CCN(c2cc(=O)n3c4c(c(-c5c(C)ccc6[nH]ncc56)ccc24)CCC3)CC1 [Example 46, 1-(4-acryloylpiperazin-1-yl)-8-(5-methyl-1H-indazol-4-yl)-6,7-dihydropyrido[3,2,1-ij]quinolin-3(5H)-one]	12
C=CC(=O)N1CCN(c2cc(=O)n3c4c(c(-c5ccc(F)cc5F)ccc24)CCC3)CC1 [Example 47, 1-(4-acryloylpiperazin-1-yl)-8-(2,4-difluorophenyl)-6,7-dihydropyrido[3,2,1-ij]quinolin-3(5H)-one]	2
C=CC(=O)N1CCN(c2cc(=O)n3c4c(c(-c5c(C)ccc6[nH]nc(C)c56)ccc24)CCC3)CC1 [Example 48, 1-(4-acryloylpiperazin-1-yl)-8-(3,5-dimethyl-1H-indazol-4-yl)-6,7-dihydropyrido[3,2,1-ij]quinolin-3(5H)-one]	1

Results, then the molecule that gave them:

CAF	SMILES
49.1	C=CC(=O)N1CCN(c2c(C#N)c(=O)n3c4c(c(-c5c(O)cccc5F)c(Cl)cc24)OCC3)[C@@H](C)C1 [Example 38, 7-((S)-4-acryloyl-2-methylpiperazin-1-yl)-9-chloro-10-(2-fluoro-6-hydroxyphenyl)-5-oxo-3,5-dihydro-2H-[1,4]oxazino[2,3,4-ij]quinoline-6-carbonitrile]
0	C=CC(=O)N1CCN(c2c(C#N)c(=O)n3c4c(c(-c5c(O)cccc5F)c(Cl)cc24)OCC3)[C@@H](C)C1 [Example 39, (S)-7-((S)-4-acryloyl-2-methylpiperazin-1-yl)-9-chloro-10-(2-fluoro-6-hydroxyphenyl)-5-oxo-3,5-dihydro-2H-[1,4]oxazino[2,3,4-ij]quinoline-6-carbonitrile]
75.5	C=CC(=O)N1CCN(c2c(C#N)c(=O)n3c4c(c(-c5c(O)cccc5F)c(Cl)cc24)OCC3)[C@@H](C)C1 [Example 40, (R)-7-((S)-4-acryloyl-2-methylpiperazin-1-yl)-9-chloro-10-(2-fluoro-6-hydroxyphenyl)-5-oxo-3,5-dihydro-2H-[1,4]oxazino[2,3,4-ij]quinoline-6-carbonitrile]
22.3	C=CC(=O)N1C[C@H](C)N(c2c(C#N)c(=O)n3c4c(c(-c5c(O)cccc5F)c(Cl)cc24)OCC3)C[C@H]1C [Example 41, 7-((2S,5R)-4-acryloyl-2,5-dimethylpiperazin-1-yl)-9-chloro-10-(2-fluoro-6-hydroxyphenyl)-5-oxo-3,5-dihydro-2H-[1,4]oxazino[2,3,4-ij]quinoline-6-carbonitrile]
0	C=CC(=O)N1C[C@H](C)N(c2c(C#N)c(=O)n3c4c(c(-c5c(O)cccc5F)c(Cl)cc24)OCC3)C[C@H]1C [Example 42, (S)-7-((2S,5R)-4-acryloyl-2,5-dimethylpiperazin-1-yl)-9-chloro-10-(2-fluoro-6-hydroxyphenyl)-5-oxo-3,5-dihydro-2H-[1,4]oxazino[2,3,4-ij]quinoline-6-carbonitrile]
0	C=CC(=O)N1C[C@H](C)N(c2c(C#N)c(=O)n3c4c(c(-c5c(O)cccc5F)c(Cl)cc24)OCC3)C[C@H]1C [Example 43, (R)-7-((2S,5R)-4-acryloyl-2,5-dimethylpiperazin-1-yl)-9-chloro-10-(2-fluoro-6-hydroxyphenyl)-5-oxo-3,5-dihydro-2H-[1,4]oxazino[2,3,4-ij]quinoline-6-carbonitrile]
4.2	C=CC(=O)N1C[C@H](C)N(c2cc(=O)n3c4c(c(-c5ccc(F)cc5F)c(Cl)cc24)OCC3)C[C@H]1C [Example 44, 7-((2S,5R)-4-acryloyl-2,5-dimethylpiperazin-1-yl)-9-chloro-10-(2,4-difluorophenyl)-2H-[1,4]oxazino[2,3,4-ij]quinolin-5(3H)-one]

Same assay, conditions: Table 4, Pyridone Core-Morpholine Substituted; after 60 minutes at 10 micromolar

% CAF (60 min)	SMILES
0%	C=CC(=O)N1C[C@H](C)N(c2c(C#N)c(=O)n3c4c(c(-c5c(O)cccc5F)c(Cl)cc24)OC[C@@H]3CN(C)C)C[C@H]1C [Example 49, (3S)-7-((2S,5R)-4-acryloyl-2,5-dimethylpiperazin-1-yl)-9-chloro-3-((dimethylamino)methyl)-10-(2-fluoro-6-hydroxyphenyl)-5-oxo-3,5-dihydro-2H-[1,4]oxazino[2,3,4-ij]quinoline-6-carbonitrile]

Same assay, conditions: Table 5; 10 uM, 1 h

% CAF @ 10 uM, 1 h	SMILES
94%	C=CC(=O)N1CCN(c2nc(=O)n3c4c(c(-c5ccc(F)cc5F)c(Cl)cc24)SC[C@H]3CN2CCN(CC(F)F)CC2)[C@@H](C)C1 [Example 70, (3R)-7-((S)-4-acryloyl-2-methylpiperazin-1-yl)-9-chloro-3-((4-(2,2-difluoroethyl)piperazin-1-yl)methyl)-10-(2,4-difluorophenyl)-2,3-dihydro-5H-[1,4]thiazino[2,3,4-ij]quinazolin-5-one]
94%	C=CC(=O)N1CCN(c2nc(=O)n3c4c(c(-c5ccc(F)cc5F)c(C(F)(F)F)cc24)SCC3)C2CS(=O)(=O)CC21 (stereo not shown) [Example 100, 7-(4-acryloyl-6,6-dioxidohexahydrothieno[3,4-b]pyrazin-1(2H)-yl)-10-(2,4-difluorophenyl)-9-(trifluoromethyl)-2,3-dihydro-5H-[1,4]thiazino[2,3,4-ij]quinazolin-5-one]
75.6%	C=CC(=O)N1CCN(c2nc(=O)n3c4c(c(-c5ccc(F)cc5F)c(Cl)cc24)SCC3)[C@H](CC#N)C1 [Example 117, 2-((2R)-4-acryloyl-1-(9-chloro-10-(2,4-difluorophenyl)-5-oxo-2,3-dihydro-5H-[1,4]thiazino[2,3,4-ij]quinazolin-7-yl)piperazin-2-yl)acetonitrile]

Same assay, conditions: Table 6; 10 μM, 1 h

% CAF @ 10 μM,1 h	SMILES
2.5%	C=CC(=O)N1C[C@H](C)N(c2nc(=O)n3c4c(c(-c5c(C)ccc6cnn(C)c56)ccc24)OCC3)C[C@H]1C [Example 194, 7-((2S,5R)-4-acryloyl-2,5-dimethylpiperazin-1-yl)-10-(1,6-dimethyl-1H-indazol-7-yl)-2,3-dihydro-5H-[1,4]oxazino[2,3,4-ij]quinazolin-5-one]
0%	C=CC(=O)N1CCN(c2nc(=O)n3c4c(c(-c5c(O)cccc5F)c(Cl)cc24)OC[C@@H]3CN2CCOCC2)[C@@H](C)C1 [Example 195, (3S,10R)-7-((S)-4-acryloyl-2-methylpiperazin-1-yl)-9-chloro-10-(2-fluoro-6-hydroxyphenyl)-3-(morpholinomethyl)-2,3-dihydro-5H-[1,4]oxazino[2,3,4-ij]quinazolin-5-one]
97.6%	C=CC(=O)N1CCN(c2nc(=O)n3c4c(c(-c5c(O)cccc5F)c(Cl)cc24)OC[C@@H]3CN2CCOCC2)[C@@H](C)C1 [Example 196, (3S,10S)-7-((S)-4-acryloyl-2-methylpiperazin-1-yl)-9-chloro-10-(2-fluoro-6-hydroxyphenyl)-3-(morpholinomethyl)-2,3-dihydro-5H-[1,4]oxazino[2,3,4-ij]quinazolin-5-one]
